From patent US20220323406A1, “METHODS AND COMPOSITIONS FOR DIFFERENTIATING STEM CELLS” (Massachusetts Institute of Technology, priority 2019, published 2022)
Structures can show the parent of a compound that is named as a salt.

Columns and labels:
[1] = tested on: ENR+CD organoids (ISC to Paneth cell differentiation); assay: Primary screen: basal (non-stimulated) lysozyme secretion LYZ.NS, 2.5-D 384-well ENR+CD organoid differentiation; format: cell-based, mouse; conditions: primary screen; for Z.LYZ.NS: standard z score
Source text: (§1) High-throughput screening.

ENR+CD organoids = assay: Primary screen: ATP (CellTiter-Glo 3D, CTG) cell number/viability, 2.5-D 384-well ENR+CD organoids; conditions: primary screen; for Z.CTG: standard z score;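 as to all read-outs here: compounds given at plating and again on day 3 over a 6-day differentiation from ENR+CV stem-cell-enriched precursors, ATP measured on day 6, plate median as control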
[2] = tested on: ENR+CD organoids (ISC to Paneth cell differentiation); assay: Primary screen: CCh-stimulated lysozyme secretion LYZ.S, 2.5-D 384-well ENR+CD organoid differentiation; format: cell-based, mouse; conditions: primary screen
Source text: as §1

Row | SMILES | Dose.FC.LYZ.NS ([1]; dose 0.08 uM) | Z.LYZ.NS (standard z score) ([1]; dose 0.08 uM) | Dose.FC.LYZ.NS ([1]; dose 0.40 uM) | Z.LYZ.NS (standard z score) ([1]; dose 0.40 uM) | Dose.FC.LYZ.NS ([1]; dose 2.00 uM) | Z.LYZ.NS (standard z score) ([1]; dose 2.00 uM) | Dose.FC.LYZ.NS ([1]; dose 10.00 uM) | Z.LYZ.NS (standard z score) ([1]; dose 10.00 uM) | Dose.FC.CTG (ENR+CD organoids; dose 0.08 uM) | Z.CTG (standard z score) (ENR+CD organoids; dose 0.08 uM) | Dose.FC.CTG (ENR+CD organoids; dose 0.40 uM) | Z.CTG (standard z score) (ENR+CD organoids; dose 0.40 uM) | Dose.FC.CTG (ENR+CD organoids; dose 2.00 uM) | Z.CTG (standard z score) (ENR+CD organoids; dose 2.00 uM) | Dose.FC.CTG (ENR+CD organoids; dose 10.00 uM) | Z.CTG (standard z score) (ENR+CD organoids; dose 10.00 uM) | Dose.FC.LYZ.S ([2]; dose 0.08 uM) | Dose.FC.LYZ.S ([2]; dose 0.40 uM) | Dose.FC.LYZ.S ([2]; dose 2.00 uM) | Dose.FC.LYZ.S ([2]; dose 10.00 uM) | further results
1 | C/C(=C\C(=O)Nc1ccccc1C(=O)O)c1ccc2ccccc2c1 [BIBR 1532] | 0.032 log2 fold change | 0.282 | 0.043 log2 fold change | 0.377 | −0.013 log2 fold change | −0.117 | −0.062 log2 fold change | −0.536 | 0.223 log2 fold change | 0.533 | −0.047 log2 fold change | −0.113 | −0.034 log2 fold change | −0.080 | 0.030 log2 fold change | 0.072 | 0.028 log2 fold change | 0.107 log2 fold change | −0.081 log2 fold change | −0.114 log2 fold change | –
2 | COc1ccc2c(c1)c(CC(=O)N1CCOCC1)c(C)n2C(=O)c1ccc(Cl)cc1 [BML-190] | 0.072 log2 fold change | 0.623 | −0.017 log2 fold change | −0.152 | 0.116 log2 fold change | 1.011 | 0.209 log2 fold change | 1.823 | −0.003 log2 fold change | −0.007 | −0.099 log2 fold change | −0.237 | −0.106 log2 fold change | −0.254 | −0.106 log2 fold change | −0.254 | 0.060 log2 fold change | −0.037 log2 fold change | 0.017 log2 fold change | 0.067 log2 fold change | –
3 | COc1ccnc2[nH]cc(C(=O)C(=O)N3CCN(C(=O)c4ccccc4)C[C@H]3C)c12 [BMS-378806] | 0.141 log2 fold change | 1.231 | – | – | −0.100 log2 fold change | −0.870 | −0.227 log2 fold change | −1.977 | 0.233 log2 fold change | 0.557 | – | – | −0.289 log2 fold change | −0.691 | −1.155 log2 fold change | −2.758 | 0.159 log2 fold change | – | −0.142 log2 fold change | −0.322 log2 fold change | –
4 | Cn1c(N2CCCCS2(=O)=O)nc(C(=O)NCc2ccc(F)cc2)c(O)c1=O [BMS-707035] | 0.107 log2 fold change | 0.933 | 0.135 log2 fold change | 1.174 | 0.110 log2 fold change | 0.955 | 0.070 log2 fold change | 0.613 | 0.318 log2 fold change | – | 0.238 log2 fold change | – | 0.279 log2 fold change | – | 0.138 log2 fold change | – | 0.134 log2 fold change | 0.182 log2 fold change | 0.048 log2 fold change | 0.050 log2 fold change | –
5 | O=C(Oc1cc(S(=O)(=O)c2ccccc2)ccc1[N+](=O)[O-])c1ccc(Cl)cc1 [BTB06584] | 0.091 log2 fold change | 0.795 | 0.025 log2 fold change | 0.214 | 0.024 log2 fold change | 0.206 | −0.031 log2 fold change | −0.268 | 0.275 log2 fold change | 0.657 | 0.288 log2 fold change | 0.688 | −0.180 log2 fold change | −0.431 | 0.199 log2 fold change | 0.475 | 0.222 log2 fold change | 0.042 log2 fold change | 0.039 log2 fold change | 0.019 log2 fold change | –
6 | O=C(Nc1cccc(Nc2ncc(Br)c(NCCc3cnc[nH]3)n2)c1)N1CCCC1 [BX-912] | 0.010 log2 fold change | – | 0.017 log2 fold change | – | −0.089 log2 fold change | – | −0.196 log2 fold change | – | 0.043 log2 fold change | – | 0.054 log2 fold change | – | −0.246 log2 fold change | – | −0.397 log2 fold change | – | 0.038 log2 fold change | 0.042 log2 fold change | −0.161 log2 fold change | −0.272 log2 fold change | Z.LYZ.NS ([1]; dose 0.08 uM): 0.090; Z.LYZ.NS ([1]; dose 0.40 uM): 0.151; Z.LYZ.NS ([1]; dose 2.00 uM): −0.771; Z.LYZ.NS ([1]; dose 10.00 uM): −1.704; Z.CTG (ENR+CD organoids; dose 0.08 uM): 0.103; Z.CTG (ENR+CD organoids; dose 0.40 uM): 0.129; Z.CTG (ENR+CD organoids; dose 2.00 uM): −0.587; Z.CTG (ENR+CD organoids; dose 10.00 uM): −0.949
7 | CNC(=O)[C@H](Cc1ccccc1)NC(=O)[C@H](CC(C)C)[C@H](CSc1cccs1)C(=O)NO [Batimastat (BB-94)] | −0.003 log2 fold change | −0.025 | 0.005 log2 fold change | 0.042 | 0.081 log2 fold change | 0.707 | −0.075 log2 fold change | −0.649 | 0.035 log2 fold change | 0.084 | −0.095 log2 fold change | −0.226 | −0.049 log2 fold change | −0.117 | −0.283 log2 fold change | −0.676 | 0.053 log2 fold change | 0.028 log2 fold change | 0.056 log2 fold change | −0.107 log2 fold change | –
8 | Cc1c(-c2ccc(O)cc2)n(Cc2ccc(OCCN3CCCCCC3)cc2)c2ccc(O)cc12 [Bazedoxifene HCl] | 0.159 log2 fold change | 1.386 | 0.026 log2 fold change | 0.229 | −0.146 log2 fold change | −1.267 | −0.280 log2 fold change | −2.442 | 0.422 log2 fold change | – | 0.365 log2 fold change | – | −0.780 log2 fold change | – | −1.148 log2 fold change | – | 0.096 log2 fold change | 0.065 log2 fold change | −0.189 log2 fold change | −0.361 log2 fold change | –
9 | O=C(/C=C/c1cccc(S(=O)(=O)Nc2ccccc2)c1)NO [Belinostat (PXD101)] | 0.008 log2 fold change | 0.067 | 0.129 log2 fold change | 1.125 | −0.173 log2 fold change | −1.510 | −0.196 log2 fold change | −1.709 | −0.227 log2 fold change | −0.543 | −0.055 log2 fold change | −0.133 | −0.782 log2 fold change | −1.868 | −1.122 log2 fold change | −2.679 | −0.059 log2 fold change | 0.042 log2 fold change | −0.264 log2 fold change | −0.327 log2 fold change | –
10 | COc1c(O)cc2c(c1O)[C@@H]1O[C@H](CO)[C@@H](O)[C@H](O)[C@H]1OC2=O [Bergenin] | 0.164 log2 fold change | 1.432 | 0.098 log2 fold change | 0.852 | 0.080 log2 fold change | 0.699 | 0.103 log2 fold change | 0.898 | 0.288 log2 fold change | – | 0.245 log2 fold change | – | 0.205 log2 fold change | – | 0.344 log2 fold change | – | 0.198 log2 fold change | 0.108 log2 fold change | 0.125 log2 fold change | 0.144 log2 fold change | –
